Measured values taken from ChEMBL document CHEMBL5724696, “Autophagy assay results for EUbOPEN Chemogenomics Library” (2024).

Test system: TERT-RPE1
Experiment: Here: values are normalized to the negative (DMSO; defined as 0% autophagy induction) and positive (250nM Torin1; mTOR inhibitor; defined as maximal inducer of autophagy = 100%) control compounds and represented as % of autophagy induction. […] The impact of autophagy induction on cells is complex and depends on the affected target. As such, the magnitude of a phenotype may not be equally mirrored in the %-value of autophagy induction and vice versa. The dynamics of the induction may indicate the mode of activation: e.g. activation via phosphorylation or a signaling cascade may occur fast, while activation via transcription factors may take considerably longer. […] Of note, treatment concentrations may be sub-optimal for specific compounds, leading to false negative annotations.
Assay type: functional, Homo sapiens
Conditions: Compound Concentration 1 uM, Culturing Media DMEM/F12 (1:1), 1 % Penicillin/Streptomycin, 10% Fetal bovin serum Add-On: No, Screening Media Control DMEM/F12 (1:1), Screening Media Samples DMEM/F12 (1:1)

Row | SMILES | autophagy induction (Timepoint 12 hours) [%] | autophagy induction (Timepoint 24 hours) [%] | autophagy induction (Timepoint 36 hours) [%] | autophagy induction (Timepoint 60 hours) [%]
1 | CC(C=CC1=C(C)CCCC1(C)C)=CC=CC(C)=CC(=O)O | -29.8215 | -16.487 | 10.9979 | 39.1731
2 | Cc1cccc(CN2CCN(C(c3ccccc3)c3ccc(Cl)cc3)CC2)c1.Cl.Cl (stereo not drawn) | 89.2215 | -0.434 | 13.2807 | -24.9822
3 | CCOC(=O)Nc1ccc2c(c1)N(C(=O)CN(CC)CC)c1ccccc1CC2 | -0.6682 | 2.4649 | 6.3561 | 1.708
4 | O=C(Nc1ccc(C(O)(C(F)(F)F)C(F)(F)F)cc1)c1ccc(C(F)(F)F)cc1 | 1.9218 | 1.011 | 4.384 | 2.099
5 | CC(=O)Nc1nc(C)c(S(=O)(=O)Nc2ccc(C(O)(C(F)(F)F)C(F)(F)F)cc2)s1 | 4.3226 | 10.3847 | 21.8693 | -92.7489
6 | CC(C)c1onc(-c2c(Cl)cccc2Cl)c1COc1ccc(/C=C/c2cccc(C(=O)O)c2)c(Cl)c1 | -17.7139 | -8.477 | 8.951 | -22.8602
7 | O=S(=O)(Nc1ccc(C(O)(C(F)(F)F)C(F)(F)F)cc1)c1cccs1 | 37.5142 | -2.586 | 11.7189 | -15.4416
8 | CC(C)C(=O)N1CCC(c2cn(C)c3ncc(NC(=O)c4cccc(C#N)c4)c(C(F)(F)F)c23)CC1 | -17.3669 | -7.8656 | 13.4062 | -15.2604
9 | COC(=O)C(Cc1ccc(OCCn2c(=O)sc3cc(C(=O)c4ccccc4)ccc32)cc1)C(=O)OC | -14.8184 | -7.449 | 12.2337 | -20.3416
10 | Clc1ccc(-c2nc3sccn3c2/C=N/OCc2ccc(Cl)c(Cl)c2)cc1 | -153.599 | -9.053 | 9.503 | -19.9955
11 | CCOP(=O)(OCC)C(=Cc1cc(C(C)(C)C)c(O)c(C(C)(C)C)c1)P(=O)(OCC)OCC | -14.535 | -0.01812 | 17.6383 | -21.9097
12 | CCOC(=O)C1Cc2ccccc2CN1C(=O)c1ccc(SC)s1 (stereo not drawn) | 141.578 | -7.836 | 8.933 | -16.4137
13 | CC1(C)C(=O)C(C)(C)c2cc(C(=O)Nc3ccc(C(=O)O)cc3)ccc21 | -15.7037 | -5.578 | 15.5375 | -28.4557
14 | C[C@H](CCOc1cccc(CC(=O)O)c1)N(Cc1cccc(C(F)(F)F)c1Cl)CC(c1ccccc1)c1ccccc1.Cl | -13.5866 | 1.703 | 15.8521 | -16.0779
15 | CCO[C@H](COc1ccc(C(F)(F)F)cc1)CSc1ccc(OCC(=O)[O-])c(C)c1.[Na+] | 0.706 | -0.6859 | 2.912 | 3.397
16 | COC(=O)c1sccc1S(=O)(=O)Nc1ccc(Nc2ccccc2)cc1OC | -12.2106 | -1.2 | 15.0919 | -15.7117
17 | CC1(C)CCC(C)(C)c2cc(C(=O)Nc3ccc(C(=O)O)cc3)ccc21 | -16.8061 | -23.3221 | -14.7294 | 28.5347
